Measured values: PubChem BioAssay (NCI)
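Dose response: 5 concentrations. Exposure: 48 h. Format: 96-well plates. Endpoint: linear interpolation; highest concentration if not reached. GI50 is the concentration that inhibits growth by half. At the TGI there is no net growth.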

Columns and labels:
Assay in all cases: inhibition of tumour cell growth, NCI panel, 48 h
786-0 renal = tested on: 786-0 renal
A498 renal = tested on: A498 renal
A549 NSCLC = tested on: A549 NSCLC
ACHN renal = tested on: ACHN renal
BT-549 breast = tested on: BT-549 breast
CAKI-1 renal = tested on: CAKI-1 renal
CCRF-CEM leukemia = tested on: CCRF-CEM leukemia
COLO 205 colon = tested on: COLO 205 colon
DU-145 prostate = tested on: DU-145 prostate
EKVX NSCLC = tested on: EKVX NSCLC
HCC-2998 colon = tested on: HCC-2998 colon
HCT-116 colon = tested on: HCT-116 colon
HCT-15 colon = tested on: HCT-15 colon
HL-60(TB) leukemia = tested on: HL-60(TB) leukemia
HOP-62 NSCLC = tested on: HOP-62 NSCLC
HOP-92 NSCLC = tested on: HOP-92 NSCLC
HT29 colon = tested on: HT29 colon
IGROV1 ovarian = tested on: IGROV1 ovarian
K-562 leukemia = tested on: K-562 leukemia
KM12 colon = tested on: KM12 colon
LOX IMVI melanoma = tested on: LOX IMVI melanoma
M14 melanoma = tested on: M14 melanoma
MCF7 breast = tested on: MCF7 breast
MDA-MB-231 breast = tested on: MDA-MB-231 breast
MDA-MB-435 = tested on: MDA-MB-435
MOLT-4 leukemia = tested on: MOLT-4 leukemia
NCI-H226 lung = tested on: NCI-H226 lung
NCI-H23 lung = tested on: NCI-H23 lung
NCI-H460 lung = tested on: NCI-H460 lung
NCI-H522 lung = tested on: NCI-H522 lung
NCI/ADR-RES ovarian = tested on: NCI/ADR-RES ovarian
OVCAR-3 ovarian = tested on: OVCAR-3 ovarian
OVCAR-4 ovarian = tested on: OVCAR-4 ovarian
OVCAR-5 ovarian = tested on: OVCAR-5 ovarian
OVCAR-8 ovarian = tested on: OVCAR-8 ovarian
PC-3 prostate = tested on: PC-3 prostate
RPMI-8226 leukemia = tested on: RPMI-8226 leukemia
RXF 393 renal = tested on: RXF 393 renal
SF-295 CNS = tested on: SF-295 CNS
SF-539 CNS = tested on: SF-539 CNS
SK-MEL-2 melanoma = tested on: SK-MEL-2 melanoma
SK-MEL-28 melanoma = tested on: SK-MEL-28 melanoma
SK-MEL-5 melanoma = tested on: SK-MEL-5 melanoma
SK-OV-3 ovarian = tested on: SK-OV-3 ovarian
SN12C renal = tested on: SN12C renal
SNB-19 CNS = tested on: SNB-19 CNS
SNB-75 CNS = tested on: SNB-75 CNS
SR leukemia = tested on: SR leukemia
SW-620 colon = tested on: SW-620 colon
T-47D breast = tested on: T-47D breast
TK-10 renal = tested on: TK-10 renal
U251 CNS = tested on: U251 CNS
UACC-257 melanoma = tested on: UACC-257 melanoma
UACC-62 melanoma = tested on: UACC-62 melanoma
HS 578T breast = tested on: HS 578T breast
SF-268 CNS = tested on: SF-268 CNS
UO-31 renal = tested on: UO-31 renal

SMILES: N#CC(C#N)=C1/C(=C/C=C/C=C/C=C/c2ccc(N3CCCCC3)s2)S(=O)(=O)c2ccccc21
- TGI (786-0 renal): > 100 µM
- TGI (A498 renal): > 100 µM
- TGI (A549 NSCLC): > 100 µM
- TGI (ACHN renal): > 100 µM
- TGI (BT-549 breast): > 100 µM
- TGI (CAKI-1 renal): > 100 µM
- TGI (CCRF-CEM leukemia): > 100 µM
- TGI (COLO 205 colon): > 100 µM
- TGI (DU-145 prostate): > 100 µM
- TGI (EKVX NSCLC): > 100 µM
- TGI (HCC-2998 colon): > 100 µM
- TGI (HCT-116 colon): > 100 µM
- TGI (HCT-15 colon): > 100 µM
- TGI (HL-60(TB) leukemia): > 100 µM
- TGI (HOP-62 NSCLC): > 100 µM
- TGI (HOP-92 NSCLC): > 100 µM
- TGI (HT29 colon): > 100 µM
- TGI (IGROV1 ovarian): > 100 µM
- TGI (K-562 leukemia): > 100 µM
- TGI (KM12 colon): > 100 µM
- TGI (LOX IMVI melanoma): > 100 µM
- TGI (M14 melanoma): > 100 µM
- TGI (MCF7 breast): > 100 µM
- TGI (MDA-MB-231 breast): > 100 µM
- TGI (MDA-MB-435): > 100 µM
- TGI (MOLT-4 leukemia): 63 µM
- TGI (NCI-H226 lung): > 100 µM
- TGI (NCI-H23 lung): > 100 µM
- TGI (NCI-H460 lung): > 100 µM
- TGI (NCI-H522 lung): > 100 µM
- TGI (NCI/ADR-RES ovarian): > 100 µM
- TGI (OVCAR-3 ovarian): > 100 µM
- TGI (OVCAR-4 ovarian): > 100 µM
- TGI (OVCAR-5 ovarian): > 100 µM
- TGI (OVCAR-8 ovarian): > 100 µM
- TGI (PC-3 prostate): > 100 µM
- TGI (RPMI-8226 leukemia): > 100 µM
- TGI (RXF 393 renal): > 100 µM
- TGI (SF-295 CNS): > 100 µM
- TGI (SF-539 CNS): > 100 µM
- TGI (SK-MEL-2 melanoma): > 100 µM
- TGI (SK-MEL-28 melanoma): > 100 µM
- TGI (SK-MEL-5 melanoma): > 100 µM
- TGI (SK-OV-3 ovarian): > 100 µM
- TGI (SN12C renal): > 100 µM
- TGI (SNB-19 CNS): > 100 µM
- TGI (SNB-75 CNS): > 100 µM
- TGI (SR leukemia): > 100 µM
- TGI (SW-620 colon): > 100 µM
- TGI (T-47D breast): > 100 µM
- TGI (TK-10 renal): > 100 µM
- TGI (U251 CNS): > 100 µM
- TGI (UACC-257 melanoma): > 100 µM
- TGI (UACC-62 melanoma): > 100 µM

SMILES: NC(=O)c1cc(Cl)ccc1NC(=O)COc1ccccc1
- GI50 (786-0 renal): 9.54 µM
- TGI (786-0 renal): > 100 µM
- GI50 (A498 renal): 1.41 µM
- TGI (A498 renal): 9.27 µM
- GI50 (A549 NSCLC): 7.06 µM
- TGI (A549 NSCLC): > 100 µM
- GI50 (ACHN renal): 10.7 µM
- TGI (ACHN renal): > 100 µM
- GI50 (CAKI-1 renal): 4.18 µM
- TGI (CAKI-1 renal): > 100 µM
- GI50 (CCRF-CEM leukemia): 3.07 µM
- TGI (CCRF-CEM leukemia): > 100 µM
- GI50 (COLO 205 colon): 2.51 µM
- TGI (COLO 205 colon): 14.4 µM
- GI50 (DU-145 prostate): 6.01 µM
- TGI (DU-145 prostate): > 100 µM
- GI50 (HCC-2998 colon): 12.1 µM
- TGI (HCC-2998 colon): > 100 µM
- GI50 (HCT-116 colon): 2.72 µM
- TGI (HCT-116 colon): > 100 µM
- GI50 (HCT-15 colon): 1.57 µM
- TGI (HCT-15 colon): > 100 µM
- GI50 (HL-60(TB) leukemia): 3.29 µM
- TGI (HL-60(TB) leukemia): 70.7 µM
- GI50 (HOP-62 NSCLC): 5.88 µM
- TGI (HOP-62 NSCLC): > 100 µM
- GI50 (HOP-92 NSCLC): 5.7 µM
- TGI (HOP-92 NSCLC): > 100 µM
- GI50 (HS 578T breast): 4.65 µM
- TGI (HS 578T breast): > 100 µM
- GI50 (HT29 colon): 1.74 µM
- TGI (HT29 colon): > 100 µM
- GI50 (IGROV1 ovarian): 5.6 µM
- TGI (IGROV1 ovarian): > 100 µM
- GI50 (K-562 leukemia): 0.854 µM
- TGI (K-562 leukemia): > 100 µM
- GI50 (KM12 colon): 2.13 µM
- TGI (KM12 colon): > 100 µM
- GI50 (LOX IMVI melanoma): 8.33 µM
- TGI (LOX IMVI melanoma): > 100 µM
- GI50 (M14 melanoma): 2.21 µM
- TGI (M14 melanoma): > 100 µM
- GI50 (MCF7 breast): 1.81 µM
- TGI (MCF7 breast): > 100 µM
- GI50 (MDA-MB-231 breast): 9.02 µM
- TGI (MDA-MB-231 breast): > 100 µM
- GI50 (MDA-MB-435): 0.356 µM
- TGI (MDA-MB-435): 2.22 µM
- GI50 (MOLT-4 leukemia): 8.14 µM
- TGI (MOLT-4 leukemia): > 100 µM
- GI50 (NCI-H226 lung): > 100 µM
- TGI (NCI-H226 lung): > 100 µM
- GI50 (NCI-H23 lung): 5.9 µM
- TGI (NCI-H23 lung): > 100 µM
- GI50 (NCI-H460 lung): 3 µM
- TGI (NCI-H460 lung): > 100 µM
- GI50 (NCI-H522 lung): 3.78 µM
- TGI (NCI-H522 lung): > 100 µM
- GI50 (NCI/ADR-RES ovarian): 1.43 µM
- TGI (NCI/ADR-RES ovarian): 20.9 µM
- GI50 (OVCAR-3 ovarian): 2.3 µM
- TGI (OVCAR-3 ovarian): 10 µM
- GI50 (OVCAR-4 ovarian): > 100 µM
- TGI (OVCAR-4 ovarian): > 100 µM
- GI50 (OVCAR-5 ovarian): 3.86 µM
- TGI (OVCAR-5 ovarian): > 100 µM
- GI50 (OVCAR-8 ovarian): 7.06 µM
- TGI (OVCAR-8 ovarian): > 100 µM
- GI50 (PC-3 prostate): 3.22 µM
- TGI (PC-3 prostate): > 100 µM
- GI50 (RPMI-8226 leukemia): 4.33 µM
- TGI (RPMI-8226 leukemia): > 100 µM
- GI50 (RXF 393 renal): 3.93 µM
- TGI (RXF 393 renal): 39.4 µM
- GI50 (SF-268 CNS): 9.89 µM
- TGI (SF-268 CNS): > 100 µM
- GI50 (SF-295 CNS): 1.96 µM
- TGI (SF-295 CNS): 41.6 µM
- GI50 (SF-539 CNS): 1.8 µM
- TGI (SF-539 CNS): 5.2 µM
- GI50 (SK-MEL-2 melanoma): 5.08 µM
- TGI (SK-MEL-2 melanoma): > 100 µM
- GI50 (SK-MEL-28 melanoma): 6.25 µM
- TGI (SK-MEL-28 melanoma): > 100 µM
- GI50 (SK-MEL-5 melanoma): 7.45 µM
- TGI (SK-MEL-5 melanoma): > 100 µM
- GI50 (SK-OV-3 ovarian): 8.15 µM
- TGI (SK-OV-3 ovarian): > 100 µM
- GI50 (SN12C renal): 17 µM
- TGI (SN12C renal): > 100 µM
- GI50 (SNB-19 CNS): 11.7 µM
- TGI (SNB-19 CNS): > 100 µM
- GI50 (SNB-75 CNS): 1.81 µM
- TGI (SNB-75 CNS): 23 µM
- GI50 (SR leukemia): 0.777 µM
- TGI (SR leukemia): > 100 µM
- GI50 (SW-620 colon): 2.58 µM
- TGI (SW-620 colon): > 100 µM
- GI50 (T-47D breast): 6.88 µM
- TGI (T-47D breast): > 100 µM
- GI50 (TK-10 renal): 63.8 µM
- TGI (TK-10 renal): > 100 µM
- GI50 (U251 CNS): 2.34 µM
- TGI (U251 CNS): > 100 µM
- GI50 (UACC-257 melanoma): > 100 µM
- TGI (UACC-257 melanoma): > 100 µM
- GI50 (UACC-62 melanoma): 5.42 µM
- TGI (UACC-62 melanoma): > 100 µM
- GI50 (UO-31 renal): 17.9 µM
- TGI (UO-31 renal): > 100 µM
